Active and inactive are the calls of the source. No cut-off for these calls is given here.

In data set [1] the test system is HL-60. In words: Cytotoxicity against human HL60 cells after 72 hrs by MTT assay. In kind it is functional, cell-based. Conditions: HL-60, 72 h.
The next data set relates to Jurkat. In words: Cytotoxicity against human Jurkat cells after 72 hrs by MTT assay. In kind it is functional, cell-based. On the technique in general: Tetrazolium assays rely on reduction of a dye to a coloured formazan, in cell work by metabolically active cells.
In data set [2] the test system is PBMC. The experiment in a line: Cytotoxicity against human PBMC after 72 hrs by MTT assay. In kind it is cell-based.
In data set [3] the test system is HL-60. The experiment in a line: Cytotoxicity against human HL60 cells assessed as LDH release after 72 hrs. In kind it is functional, cell-based. Conditions: HL-60, 72 h.
Data set [4] relates to HL-60. In words: Cytotoxicity against human HL60 cells after 6 hrs by MTT assay. Conditions: HL-60, 6 h. In kind it is functional, cell-based.
For data set [5], the system named is HL-60. In words: Cytotoxicity against human HL60 cells after 16 hrs by MTT assay. The settings on record: HL-60, 16 h. In kind it is functional, cell-based.
In data set [6] the test system is HL-60. The experiment in a line: Cytotoxicity against human HL60 cells after 24 hrs by MTT assay. In kind it is functional, cell-based. The settings on record: HL-60, 24 h.
Data set [7] deals with HL-60. The experiment in a line: Induction of apoptosis in human HL60 cells assessed as mitochondrial membrane depolarization at 1.0 uM after 12 hrs by flow cytometry. In kind it is functional. For orientation: Flow cytometry measures light scatter and fluorescence of single cells or particles in a stream.
For data set [8], the system named is HL-60. In words: Induction of apoptosis in human HL60 cells assessed as mitochondrial membrane depolarization at 1.0 uM after 24 hrs by flow cytometry. It is filed as functional.
The test system of data set [9] is PBMC. The experiment in a line: Induction of apoptosis in human PBMC assessed as mitochondrial membrane depolarization at 0.1 to 100 uM after 24 hrs. It is filed as functional, cell-based.
Data set [10] has as its system HL-60. The experiment in a line: Induction of apoptosis in human HL60 cells assessed as increase in sub-G0/G1 population at 1 uM after 16 hrs by flow cytometry. It is filed as functional.
Data set [11] relates to HL-60. In words: Induction of apoptosis in human HL60 cells assessed as increase in sub-G0/G1 population at 1 uM after 24 hrs by flow cytometry. In kind it is functional.
The test system of data set [12] is HL-60. The experiment in a line: Induction of apoptosis in human HL60 cells assessed as pyknotic nuclear fragments at 10 uM after 24 hrs. In kind it is functional, cell-based.
Data set [13] deals with HL-60. In words: Induction of apoptosis in human HL60 cells assessed as pyknotic nuclear fragments at 10 uM after 24 hrs in presence of Z-VAD-fmk. It is filed as functional, cell-based.
Data set [14] can be described thus: Stability in human HL60 cells assessed as percentage drug remaining at 10 uM after 16 hrs. It is filed as ADME, cell-based. The settings on record: HL-60 cells, read-out: Activity.
Data set [15] is described as follows: Stability in human HL60 cells assessed as percentage drug remaining at 10 uM after 24 hrs. The settings on record: HL-60 cells, read-out: Activity. It is filed as ADME, cell-based.
Data set [16] has as its system HL-60. The experiment in a line: Stability in human HL60 cells assessed as formation of 10-beta-(p-bromophenoxy)-dihydroartemisinin tetrahydrofuran acetate at 10 uM after 24 hrs. In kind it is ADME, cell-based. The settings on record: hl-60, 24 h.
Data set [17] in a line: Stability in human PBMC assessed as percentage drug remaining at 10 uM after 24 hrs. It is filed as ADME, cell-based. Conditions: read-out: Activity.
Data set [18] relates to HL-60. The experiment in a line: Induction of apoptosis in human HL60 cells assessed as activation of caspase 3 by Western blotting. In kind it is functional, cell-based. In general terms: A western blot detects proteins with antibodies after separation by electrophoresis.
Data set [19] has as its system HL-60. The experiment in a line: Induction of apoptosis in human HL60 cells assessed as activation of caspase 7 by Western blotting. It is filed as functional, cell-based.
Data set [20] relates to HL-60. The experiment in a line: Reversal of induction of apoptosis in human HL60 cells assessed as inhibition of caspase 3 activation at 1 uM after 24 hrs by Western blotting in presence of Z-VAD-fmk. In kind it is functional, cell-based.
Data set [21] concerns HL-60. The experiment in a line: Induction of apoptosis in human HL60 cells assessed as mitochondrial membrane depolarization at 10 uM after 24 hrs by flow cytometry in presence of Z-VAD-fmk. It is filed as functional, cell-based.
Data set [22] deals with HL-60. In words: Reversal of induction of apoptosis in human HL60 cells assessed as formation of sub-G0/G1 population at 10 uM after 24 hrs by flow cytometry in presence of Z-VAD-fmk. It is filed as functional, cell-based.

As a reminder, the IC50 is the midpoint of a concentration-inhibition curve. As to `C[C@H]1[C@@H](Oc2ccc(F)cc2)O[C@@H]2O[C@]3(C)CC[C@H]4[C@H](C)CC[C@@H]1[C@@]24OO3`, the IC50 in the data set with HL-60 [1] is 0.54 µM; with Jurkat, 0.23 µM; with PBMC [2] it was greater than 250 µM; in the data set with HL-60 [3] it was 0.76 µM; with HL-60 [4], greater than 100 µM; in the data set with HL-60 [5] it was 6.08 µM. The compound also yielded a half-inhibitory concentration (IC50) with HL-60 [6] of 0.51 µM. Besides, the Activity came to 65.8% with HL-60 [7], 29.8% in the data set with HL-60 [8], 24.3% with HL-60 [10] and 62.9% in the data set on HL-60 [11]. For the same compound, the outcome in the data set with PBMC [9] and in the data set on HL-60 [13] was inactive. Also, the result in the data set on HL-60 [12] was Active.
With `C[C@H]1[C@@H](Oc2ccc(Br)cc2)O[C@@H]2O[C@]3(C)CC[C@H]4[C@H](C)CC[C@@H]1[C@@]24OO3`, the IC50 is 0.12 µM in the data set on HL-60 [1], 0.34 µM in the data set with Jurkat, greater than 250 µM in the data set with PBMC [2] and 0.73 µM with HL-60 [3]. In data set [14], the remaining at 16 h, 10 µM worked out at 37%. In addition, the results for the remaining at 24 h, 10 µM in data set [15] and in [17] were 19% and 64%, respectively. Moreover, the Activity in the data set with HL-60 [16] is 7%; in the data set on HL-60 [11] it was 60%.
Take `C[C@H]1[C@@H](Oc2ccc(F)cc2)O[C@@H]2O[C@]3(C)CC[C@H]4[C@H](C)CC[C@@H]1[C@@]24O3`: the IC50 was 25.5 µM in the data set with HL-60 [1]; 30.7 µM with Jurkat; greater than 250 µM in the data set with PBMC [2]; 32.4 µM in the data set on HL-60 [3]; greater than 100 µM in the data set on HL-60 [4]; 3.78 µM in the data set on HL-60 [5]. Moreover, the IC50 in the data set with HL-60 [6] turned out to be 0.46 µM. Besides, the outcome in the data set with HL-60 [18] and with HL-60 [19] was inactive.
Consider `C[C@H]1[C@@H](O)O[C@@H]2O[C@@]3(C)CC[C@H]4[C@H](C)CC[C@@H]1[C@@]24OO3` [ARTENIMOL], for which the IC50 with Jurkat is 0.65 µM; in the data set with PBMC [2], greater than 250 µM; in the data set on HL-60 [3], 1.56 µM. Besides, in the data set with HL-60 [11], the Activity came out at 60%. Besides, the result with HL-60 [12], with HL-60 [20], with HL-60 [21] and in the data set on HL-60 [22] was Active. In the data set on HL-60 [13], the result was inactive.
`COc1cccc2c1C(=O)c1c(O)c3c(c(O)c1C2=O)C[C@@](O)(C(=O)CO)C[C@@H]3O[C@H]1C[C@H](N)[C@H](O)[C@H](C)O1` [DOXORUBICIN] yielded an IC50 in the data set with Jurkat of 0.09 µM.
